Data taken from patent US20110144374A1, “OXIME ETHER DERIVATIVE AND FUNGICIDE FOR AGRICULTURE AND HORTICULTURE” (Nippon Soda Co., Ltd., priority 2008, published 2011).

| melting point [°C] | Compound |
| --- | --- |
| 121 to 122 | COC(=O)NOc1cc(/C(C)=N/OCc2ccccc2I)ccc1Cl [Compound 11-9, N-{2-chloro-5-[1-(2-iodobenzyloxyimino)ethyl]phenoxy}methyl carbamate] |
| 104 to 105 | COC(=O)NOc1cc(/C(C)=N/OCc2cccc(F)c2C(F)(F)F)ccc1Cl [Compound 1-13, N-(2-chloro-5-{1-[3-fluoro-2-(trifluoromethyl)benzyloxyimino]ethyl}phenoxy)methyl carbamate] |
| 82 to 85 | COC(=O)NOc1cc(/C(C)=N/OCc2ccccc2C(F)(F)F)ccc1C [Compound 21-24, N-{2-methyl-5-[1-(2-trifluoromethylbenzyloxyimino)ethyl]phenoxy}methyl carbamate] |
